Among the data in EP2486923B1, “Histone deacetylase (HDAC) inhibiting compounds and method of making same” (Dr. Felix Jäger und Dr. Stefan Drinkuth Laborgemeinschaft …, priority 2011, dated 2012) are IC50 values, retold here.

What all share (assay): Two-step fluorescence assay for determination of IC50
What all share (assay type): biochemical

One test concerns the target HDAC1 (Homo sapiens, UniProt Q13547). To be noted: ε-acetylated lysine substrate, trypsin release of 7-amino-4-methylcoumarin; four parameter fit; read-out: IC50 values HDAC1. Here is the method: (§1) In order to evaluate the inhibitory characteristics of example compounds of the invention, IC50 values were determined for such compounds. […] A two-step assay was used for this purpose.
(§2) To obtain the IC50 value for an individual compound/HDAC pair, a two-step assay can be performed based on a fluorescence signal. In principle, an ε-acetylated lysine substrate is deacetylated by histone-deacetylases in the first step. Trypsin releases detectable 7-amino-4-methylcoumarin (ex = excitation wavelength: 390 nm, em = emission wavelength: 460 nm) by cleaving the substrate at the deacetylated lysine in a subsequent reaction^[9]. The enzyme activity is inhibited by a suitable HDACi.
(§3) The obtained data are interpreted using a four parameter fit. Based on this fit, the IC50 value can be estimated. Analysis ot the data and calculation of the IC50 values was accomplished using a four-parameter logistic model protocol as previously described by Vølund^[16]. For nonlinear fits the Levenberg-Marquardt algorithm was applied^[17],[18]. […] Table 1: IC50 values in µM for synthesized compounds of the invention with a perfluorinated linker. […] HDAH = HDAC-like amidohydrolase

The target in another test is T1, HDAC6 (Homo sapiens, UniProt Q9UBN7).
T1 sequence (Q9UBN7 1-1215): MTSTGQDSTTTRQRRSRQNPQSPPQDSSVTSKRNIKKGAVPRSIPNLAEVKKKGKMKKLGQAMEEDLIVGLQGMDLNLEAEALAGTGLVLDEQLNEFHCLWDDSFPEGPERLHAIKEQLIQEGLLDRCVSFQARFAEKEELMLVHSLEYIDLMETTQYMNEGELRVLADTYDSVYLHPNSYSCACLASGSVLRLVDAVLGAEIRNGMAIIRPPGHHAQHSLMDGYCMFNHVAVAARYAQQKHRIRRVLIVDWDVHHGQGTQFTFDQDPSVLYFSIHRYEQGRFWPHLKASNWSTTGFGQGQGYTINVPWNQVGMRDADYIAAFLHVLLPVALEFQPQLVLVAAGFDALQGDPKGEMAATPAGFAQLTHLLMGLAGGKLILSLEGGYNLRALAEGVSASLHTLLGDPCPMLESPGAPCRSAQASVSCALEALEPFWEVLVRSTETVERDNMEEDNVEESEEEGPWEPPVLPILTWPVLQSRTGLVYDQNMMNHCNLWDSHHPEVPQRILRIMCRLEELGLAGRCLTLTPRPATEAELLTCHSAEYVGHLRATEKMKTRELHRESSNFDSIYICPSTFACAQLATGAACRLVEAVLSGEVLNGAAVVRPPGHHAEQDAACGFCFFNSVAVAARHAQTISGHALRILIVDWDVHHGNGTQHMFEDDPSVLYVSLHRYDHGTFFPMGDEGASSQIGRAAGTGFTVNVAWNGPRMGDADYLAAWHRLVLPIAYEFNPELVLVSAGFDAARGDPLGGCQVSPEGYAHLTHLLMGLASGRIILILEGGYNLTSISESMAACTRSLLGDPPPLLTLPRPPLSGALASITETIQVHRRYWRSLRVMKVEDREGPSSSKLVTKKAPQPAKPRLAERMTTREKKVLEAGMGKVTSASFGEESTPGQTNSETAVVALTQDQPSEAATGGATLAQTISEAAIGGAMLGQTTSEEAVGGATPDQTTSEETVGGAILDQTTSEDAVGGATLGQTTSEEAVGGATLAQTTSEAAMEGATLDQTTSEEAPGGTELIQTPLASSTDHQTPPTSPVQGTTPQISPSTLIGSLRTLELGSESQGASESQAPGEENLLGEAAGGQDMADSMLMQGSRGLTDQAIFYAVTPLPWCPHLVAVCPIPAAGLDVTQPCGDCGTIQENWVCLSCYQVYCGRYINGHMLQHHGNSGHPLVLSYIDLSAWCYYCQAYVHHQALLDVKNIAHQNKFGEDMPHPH
To be noted: ε-acetylated lysine substrate, trypsin release of 7-amino-4-methylcoumarin; four parameter fit; read-out: IC50 values HDAC6. Here is the method: as §1, §2, §3

For a further test, the target named is T2, HDAC7 (Homo sapiens, UniProt Q8WUI4).
T2 sequence (Q8WUI4 1-952): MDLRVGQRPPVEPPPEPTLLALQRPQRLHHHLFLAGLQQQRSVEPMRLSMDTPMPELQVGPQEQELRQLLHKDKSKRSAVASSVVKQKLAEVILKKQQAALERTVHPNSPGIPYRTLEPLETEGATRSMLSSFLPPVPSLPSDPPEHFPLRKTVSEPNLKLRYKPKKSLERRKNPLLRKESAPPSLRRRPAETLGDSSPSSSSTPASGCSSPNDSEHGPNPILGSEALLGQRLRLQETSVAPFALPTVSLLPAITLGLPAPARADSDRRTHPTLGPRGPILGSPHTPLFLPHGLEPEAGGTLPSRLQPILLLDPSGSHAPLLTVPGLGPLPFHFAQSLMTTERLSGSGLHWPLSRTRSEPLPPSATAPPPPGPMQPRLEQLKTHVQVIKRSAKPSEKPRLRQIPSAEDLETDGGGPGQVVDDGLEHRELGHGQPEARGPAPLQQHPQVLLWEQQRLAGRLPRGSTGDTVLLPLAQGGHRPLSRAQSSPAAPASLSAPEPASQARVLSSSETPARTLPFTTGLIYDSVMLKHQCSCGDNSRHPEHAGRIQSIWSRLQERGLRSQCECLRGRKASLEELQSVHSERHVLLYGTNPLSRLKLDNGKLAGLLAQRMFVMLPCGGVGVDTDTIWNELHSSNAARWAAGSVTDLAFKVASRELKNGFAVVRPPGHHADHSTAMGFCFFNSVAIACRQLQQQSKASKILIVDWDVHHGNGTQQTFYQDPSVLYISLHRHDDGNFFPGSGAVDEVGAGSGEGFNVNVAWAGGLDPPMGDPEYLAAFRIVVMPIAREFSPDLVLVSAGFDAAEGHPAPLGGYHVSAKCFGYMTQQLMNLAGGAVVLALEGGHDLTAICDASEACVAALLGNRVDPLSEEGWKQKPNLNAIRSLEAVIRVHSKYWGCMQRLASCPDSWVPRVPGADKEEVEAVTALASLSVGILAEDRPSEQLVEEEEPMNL
Here is the method:
as §1, §2, §3

In a further test the target is T3, HDAC8 (Homo sapiens, UniProt Q9BY41).
T3 sequence (Q9BY41 1-377): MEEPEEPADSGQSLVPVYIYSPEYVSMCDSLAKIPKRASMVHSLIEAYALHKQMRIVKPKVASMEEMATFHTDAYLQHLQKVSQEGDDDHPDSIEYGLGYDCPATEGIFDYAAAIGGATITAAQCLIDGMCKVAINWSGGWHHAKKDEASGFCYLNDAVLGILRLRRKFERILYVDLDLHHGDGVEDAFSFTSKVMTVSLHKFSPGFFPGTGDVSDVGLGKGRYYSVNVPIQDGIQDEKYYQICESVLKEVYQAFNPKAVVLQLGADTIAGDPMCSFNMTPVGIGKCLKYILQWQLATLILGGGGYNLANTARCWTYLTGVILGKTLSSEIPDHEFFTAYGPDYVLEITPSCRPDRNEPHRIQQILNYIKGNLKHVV
Here is the method:
as §1, §2, §3

Another test has as its target T4, HDAH (Alcaligenes sp., UniProt Q70I53).
T4 sequence (Q70I53 1-369): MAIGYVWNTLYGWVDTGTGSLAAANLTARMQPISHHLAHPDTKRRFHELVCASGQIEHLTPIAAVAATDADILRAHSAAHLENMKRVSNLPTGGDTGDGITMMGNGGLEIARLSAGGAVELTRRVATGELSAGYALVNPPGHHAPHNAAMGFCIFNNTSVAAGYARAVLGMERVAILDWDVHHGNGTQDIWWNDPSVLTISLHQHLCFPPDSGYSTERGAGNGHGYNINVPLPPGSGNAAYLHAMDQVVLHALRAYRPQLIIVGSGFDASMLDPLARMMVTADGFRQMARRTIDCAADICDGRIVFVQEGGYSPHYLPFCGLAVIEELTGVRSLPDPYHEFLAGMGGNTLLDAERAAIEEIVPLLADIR
As to conditions: HDAC-like amidohydrolase; ε-acetylated lysine substrate, trypsin release of 7-amino-4-methylcoumarin; four parameter fit; read-out: IC50 values HDAH. The protocol: as §1, §2, §3

[1] abbreviates: ε-acetylated lysine substrate, trypsin release of 7-amino-4-methylcoumarin, four parameter fit, read-out: IC50 values HDAC7.
[2] abbreviates: ε-acetylated lysine substrate, trypsin release of 7-amino-4-methylcoumarin, four parameter fit, read-out: IC50 values HDAC8.

One may read the pIC50 as the IC50 on a negative log10 scale, so that one unit is a factor of ten.

pIC50: −log10 of the molar value. Like-named read-outs stand apart in the source and are kept apart here.

Sequence of HDAC1 (Q13547 whole entry): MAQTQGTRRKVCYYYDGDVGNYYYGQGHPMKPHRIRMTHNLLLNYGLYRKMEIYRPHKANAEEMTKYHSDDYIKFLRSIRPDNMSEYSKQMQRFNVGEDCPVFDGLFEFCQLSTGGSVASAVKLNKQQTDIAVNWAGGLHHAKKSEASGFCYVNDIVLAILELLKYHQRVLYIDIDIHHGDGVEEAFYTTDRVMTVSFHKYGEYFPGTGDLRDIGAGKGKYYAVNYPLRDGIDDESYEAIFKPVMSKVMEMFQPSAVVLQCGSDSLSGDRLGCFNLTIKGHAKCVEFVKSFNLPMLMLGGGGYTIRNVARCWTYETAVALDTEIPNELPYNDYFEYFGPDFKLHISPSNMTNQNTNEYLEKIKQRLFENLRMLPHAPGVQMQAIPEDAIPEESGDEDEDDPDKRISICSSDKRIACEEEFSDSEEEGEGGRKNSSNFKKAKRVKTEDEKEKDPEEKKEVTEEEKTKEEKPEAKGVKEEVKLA

In the case of `Cc1ccc(NC(=O)C(F)(F)C(F)(F)C(F)(F)C(F)(F)C(F)(F)C(F)(F)C(=O)NO)cc1` [LU222, 2,2,3,3,4,4,5,5,6,6,7,7-Dodecafluorooctanedioic acid hydroxyamide 4-methyl-phenylamide], the pIC50 on HDAC1 was 4.79; at HDAC6 it was below 4.00; at HDAC7 it was 4.07; against HDAC8, 4.06; at HDAH, 6.07.

With `O=C(NO)C(F)(F)C(F)(F)C(F)(F)C(F)(F)C(F)(F)C(F)(F)C(=O)Nc1ccc(-c2cnnn2-c2ccccc2)cc1` [LU236, 2,2,3,3,4,4,5,5,6,6,7,7-Dodecafluorooctanedioic acid hydroxyamide [4-(1-phenyl-1H-[1,2,3]triazol-5-yl)phenyl]amide], the pIC50 at HDAC1 was 4.08; on HDAC6, 4.25; on HDAC7 (setting [1]), 4.79; against HDAC8, below 4.00; at HDAH it was 4.98.

On to `O=C(NO)C(F)(F)C(F)(F)C(F)(F)C(F)(F)C(F)(F)C(F)(F)C(=O)Nc1ccc(-c2ccccc2)cc1` [LU229, 2,2,3,3,4,4,5,5,6,6,7,7-Dodecafluorooctanedioic acid biphenyl-4-ylamide hydroxyamide], for which the pIC50 was 4.42 on HDAC1; 4.23 on HDAC6; 4.66 at HDAC7; below 4.00 at HDAC8 (setting [2]); 6.11 at HDAH.

With `O=C(NO)C(F)(F)C(F)(F)C(F)(F)C(F)(F)C(F)(F)C(F)(F)C(=O)Nc1nc(-c2ccccc2)cs1` [LU235, 2,2,3,3,4,4,5,5,6,6,7,7-Dodecafluorooctanedioic acid hydroxyamide (4-phenylthiazol-2-yl)amide], the pIC50 was 5.48 on HDAC1; 5.19 at HDAC6; 5.75 at HDAC7 (setting [1]); 5.68 on HDAC8 (setting [2]); 5.29 at HDAH.
